Test [1] concerns U87MG (Human malignant glioblastoma cells). Kind of test: In vitro anti-tumor cellular activity (MTT), U87MG. The class given is cell-based. Particulars: Homo sapiens, U-87 MG, read-out: U87MG IC50.
In test [2] the test system is H460 (human lung cancer cell). In words: In vitro anti-tumor cellular activity (MTT), H460. Format: cell-based. The following applies: Homo sapiens, read-out: H460 IC50.
For test [3], the system named is SMMC-7721 (hepatoma cell). Kind of test: In vitro anti-tumor cellular activity (MTT), SMMC-7721. Format: cell-based, human. The following applies: Homo sapiens, read-out: SMMC-7721 IC50.
Test [4] concerns HT-29 (colon cancer cell). Kind of test: In vitro anti-tumor cellular activity (MTT), HT-29. The class given is cell-based, human. Particulars: Homo sapiens, read-out: HT-29 IC50.
Test [5] concerns the target T1, c-Met (His-tagged recombinant human Met (Amino acids 974-ends)) (Homo sapiens, UniProt P08581).
T1 construct: His-tagged recombinant human Met (Amino acids 974-ends); His; host or cells: baculovirus expression
Kind of test: c-Met kinase assay (ELISA). The class given is biochemical. Particulars: 50 pM c-Met, 5 μM ATP, 20 min. On the procedure: c-Met kinase activity was measured with an ELISA reader.
The reaction mixture was removed by washing with 0.2 μg/mL conjugated horseradish peroxidase (HRP) monoclonal antibody specific for phosphotyrosine (PY20) detecting phosphorylation of the substrate polymer. 1M phosphoric acid was added to terminate the color, the chromogenic substrate (TMB) was tested by spectrophotometry at 450 nm.
In general terms: An ELISA detects its analyte on a solid surface through an enzyme-linked reagent.

For test [6], the system named is MKN-45 (human gastric carcinoma cell). In words: In vitro anti-tumor cellular activity (MTT), MKN-45. The class given is cell-based. The following applies: Homo sapiens, read-out: MKN-45 IC50.

Molecules are shown by their SMILES. In brackets after ≈: the same amount, converted by molar mass. Like-named read-outs stand apart in the source and are kept apart here.

T1 sequence (P08581 974-1390 limits assumed): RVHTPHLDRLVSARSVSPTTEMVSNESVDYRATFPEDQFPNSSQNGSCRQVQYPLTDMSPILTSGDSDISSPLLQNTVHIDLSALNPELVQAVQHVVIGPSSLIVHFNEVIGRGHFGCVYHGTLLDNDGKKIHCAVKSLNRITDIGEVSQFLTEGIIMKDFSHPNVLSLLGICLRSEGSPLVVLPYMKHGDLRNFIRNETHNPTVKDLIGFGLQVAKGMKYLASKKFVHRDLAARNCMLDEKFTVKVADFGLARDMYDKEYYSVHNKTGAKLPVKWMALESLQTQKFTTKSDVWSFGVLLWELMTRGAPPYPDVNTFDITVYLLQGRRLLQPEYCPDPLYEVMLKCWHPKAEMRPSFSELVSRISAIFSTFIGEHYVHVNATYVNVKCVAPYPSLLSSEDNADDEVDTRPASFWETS

On to `COc1cc2c(Oc3ccc(NC(=O)c4nn(-c5cc(C(F)(F)F)ccc5Cl)c5ccccc5c4=O)cc3F)ccnc2cc1OCCCN1CCCCC1` [Example 20, N-(3-fluoro-4-((6-methoxy-7-(3-(piperidin-1-yl)propoxy)quinolin-4-yl)oxy)phenyl)-1-(2-chloro-5-(trifluoromethyl)phenyl)-4-oxo-1,4-dihydrocinnoline-3-carboxamide], for which the IC50 – broadly, the point on the concentration scale where inhibition reaches its midpoint – was 1.3 µg/mL (≈ 1.67 µM) in test [1] (MTT, 72 hours, U87MG); 1.1 µg/mL (≈ 1.42 µM) in test [2] (NCI-H460, MTT, 72 hours, H460); 0.5 µg/mL (≈ 0.644 µM) in test [3] (MTT, 72 hours, SMMC-7721); 0.7 µg/mL (≈ 0.902 µM) in test [4] (MTT, 72 hours, HT-29); 1930 nM in test [5]; 1.6 µg/mL (≈ 2.06 µM) in test [6] (MTT, 72 hours, MKN-45).

Consider `COc1cc2c(Oc3ccc(NC(=O)c4nn(-c5cc(C(F)(F)F)ccc5Cl)c5ccccc5c4=O)cc3F)ccnc2cc1OCCCN1CCC(C)CC1` [Example 21, N-(3-fluoro-4-((6-methoxy-7-(3-(4-methylpiperidin-1-yl)propoxy)quinolin-4-yl)oxy)phenyl)-1-(2-chloro-5-(trifluoromethyl)phenyl)-4-oxo-1,4-dihydrocinnoline-3-carboxamide], for which the IC50 in test [1] (MTT, 72 hours, U87MG) is 0.7 µg/mL (≈ 0.886 µM); in test [2] (NCI-H460, MTT, 72 hours, H460) it was 0.8 µg/mL (≈ 1.01 µM); in test [3] (MTT, 72 hours, SMMC-7721), 1.4 µg/mL (≈ 1.77 µM); in test [4] (MTT, 72 hours, HT-29), 0.8 µg/mL (≈ 1.01 µM); in test [5], 1140 nM; in test [6] (MTT, 72 hours, MKN-45), 0.6 µg/mL (≈ 0.759 µM).

`COc1cc2c(Oc3ccc(NC(=O)c4nn(-c5cc(C(F)(F)F)ccc5Cl)c5ccccc5c4=O)cc3F)ccnc2cc1OCCCN1CCN(C)CC1` [Example 23, N-(3-fluoro-4-((6-methoxy-7-(3-(4-methylpiperazin-1-yl)propoxy)quinolin-4-yl)oxy)phenyl)-1-(2-chloro-5-(trifluoromethyl)phenyl)-4-oxo-1,4-dihydrocinnoline-3-carboxamide]: the IC50 in test [1] (MTT, 72 hours, U87MG) was 1.3 µg/mL (≈ 1.64 µM); in test [2] (NCI-H460, MTT, 72 hours, H460) it was 1 µg/mL (≈ 1.26 µM); in test [3] (MTT, 72 hours, SMMC-7721), 1.4 µg/mL (≈ 1.77 µM); in test [4] (MTT, 72 hours, HT-29), 0.7 µg/mL (≈ 0.885 µM); in test [5] it was 404 nM; in test [6] (MTT, 72 hours, MKN-45), 0.9 µg/mL (≈ 1.14 µM).

With `COc1cc2c(Oc3ccc(NC(=O)c4nn(-c5ccc(C)cc5C)c5ccccc5c4=O)cc3F)ccnc2cc1OCCCN1CCC(C)CC1` [Example 24, N-(3-fluoro-4-((6-methoxy-7-(3-(4-methylpiperidin-1-yl)propoxy)quinolin-4-yl)oxy)phenyl)-1-(2,4-dimethylphenyl)-4-oxo-1,4-dihydrocinnoline-3-carboxamide], the IC50 in test [1] (MTT, 72 hours, U87MG) was 2.8 µg/mL (≈ 3.91 µM); in test [2] (NCI-H460, MTT, 72 hours, H460) it was 1.1 µg/mL (≈ 1.54 µM); in test [3] (MTT, 72 hours, SMMC-7721), 0.86 µg/mL (≈ 1.2 µM); in test [4] (MTT, 72 hours, HT-29) it was 1.4 µg/mL (≈ 1.96 µM); in test [5] it was 1260 nM; in test [6] (MTT, 72 hours, MKN-45), 0.8 µg/mL (≈ 1.12 µM).

As to `COc1cc2c(Oc3ccc(NC(=O)c4nn(-c5ccc(C)cc5C)c5ccccc5c4=O)cc3F)ccnc2cc1OCCCN1CCN(C)CC1` [Example 26, N-(3-fluoro-4-((6-methoxy-7-(3-(4-methylpiperazin-1-yl)propoxy)quinolin-4-yl)oxy)phenyl)-1-(2,4-dimethylphenyl)-4-oxo-1,4-dihydrocimloline-3-carboxamide], the half-maximal inhibitory concentration (IC50) in test [1] (MTT, 72 hours, U87MG) was 1.8 µg/mL (≈ 2.51 µM); in test [2] (NCI-H460, MTT, 72 hours, H460), 0.8 µg/mL (≈ 1.12 µM); in test [3] (MTT, 72 hours, SMMC-7721), 1.6 µg/mL (≈ 2.23 µM); in test [4] (MTT, 72 hours, HT-29), 1.4 µg/mL (≈ 1.95 µM); in test [5] it was 419 nM; in test [6] (MTT, 72 hours, MKN-45), 0.7 µg/mL (≈ 0.977 µM).

For `COc1cc2c(Oc3ccc(NC(=O)c4nn(-c5ccc(Cl)cc5Cl)c5ccccc5c4=O)cc3F)ccnc2cc1OCCCN1CCC(C)CC1` [Example 28, N-(3-fluoro-4-((6-methoxy-7-(3-(4-methylpiperidin-1-yl)propoxy)quinolin-4-yl)oxy)phenyl)-1-(2,4-dichlorophenyl)-4-oxo-1,4-dihydrocinnoline-3-carboxamide], the half-maximal inhibitory concentration (IC50) in test [1] (72 h) is 1.6 µg/mL (≈ 2.11 µM); in test [2] (NCI-H460, 72 h), 2.3 µg/mL (≈ 3.04 µM); in test [3] (SMMC-7721, 72 h), 1.3 µg/mL (≈ 1.72 µM); in test [4] (HT-29, 72 h), 0.9 µg/mL (≈ 1.19 µM); in test [5], 1720 nM; in test [6] (MKN-45, 72 h), 1.8 µg/mL (≈ 2.38 µM).

Take `COc1cc2c(Oc3ccc(NC(=O)c4nn(-c5c(Cl)cccc5Cl)c5ccccc5c4=O)cc3F)ccnc2cc1OCCCN1CCN(C)CC1` [Example 32, N-(3-fluoro-4-((6-methoxy-7-(3-(4-methylpiperazin-1-yl)propoxy)quinolin-4-yl)oxy)phenyl)-1-(2,6-dichlorophenyl)-4-oxo-1,4-dihydrocinnoline-3-carboxamide]: the IC50 in test [1] (72 h) was 0.65 µg/mL (≈ 0.858 µM); in test [2] (NCI-H460, 72 h), 0.7 µg/mL (≈ 0.924 µM); in test [3] (SMMC-7721, 72 h), 0.66 µg/mL (≈ 0.871 µM); in test [4] (HT-29, 72 h), 0.77 µg/mL (≈ 1.02 µM); in test [5], 132 nM; in test [6] (MKN-45, 72 h), 1.2 µg/mL (≈ 1.58 µM).

Take `COc1cc2c(Oc3ccc(NC(=O)c4nn(-c5ccccc5Br)c5ccccc5c4=O)cc3F)ccnc2cc1OCCCN1CCN(C)CC1` [Example 35, N-(3-fluoro-4-((6-methoxy-7-(3-(4-methylpiperazin-1-yl)propoxy)quinolin-4-yl)oxy)phenyl)-1-(2-bromophenyl)-4-oxo-1,4-dihydrocinnoline-3-carboxamide]: the half-inhibitory concentration (IC50) in test [1] (72 h) was 1.3 µg/mL (≈ 1.69 µM); in test [2] (NCI-H460, 72 h) it was 2.5 µg/mL (≈ 3.26 µM); in test [3] (SMMC-7721, 72 h) it was 1.5 µg/mL (≈ 1.95 µM); in test [4] (HT-29, 72 h), 0.9 µg/mL (≈ 1.17 µM); in test [5], 1430 nM; in test [6] (MKN-45, 72 h) it was 2.1 µg/mL (≈ 2.74 µM).

Consider `COc1cc2c(Oc3ccc(NC(=O)c4nn(-c5ccc(F)cc5)c5ccccc5c4=O)cc3F)ccnc2cc1OCCCN1CCOCC1` [Example 36, N-(3-fluoro-4-((6-methoxy-7-(3-(morpholin-4-yl)propoxy)quinolin-4-yl)oxy)phenyl)-1-(4-fluorophenyl)-4-oxo-1,4-dihydrocinnoline-3-carboxamide], for which the IC50 was 1.5 µg/mL (≈ 2.16 µM) in test [1] (MTT, 72 hours, U87MG); 1.1 µg/mL (≈ 1.59 µM) in test [2] (NCI-H460, MTT, 72 hours, H460); 0.87 µg/mL (≈ 1.25 µM) in test [3] (MTT, 72 hours, SMMC-7721); 0.7 µg/mL (≈ 1.01 µM) in test [4] (MTT, 72 hours, HT-29); 966 nM in test [5]; 1.3 µg/mL (≈ 1.87 µM) in test [6] (MTT, 72 hours, MKN-45).

Take `COc1cc2c(Oc3ccc(NC(=O)c4nn(-c5ccccc5OC(F)(F)F)c5ccccc5c4=O)cc3F)ccnc2cc1OCCCN1CCCCC1` [Example 38, N-(3-fluoro-4-((6-methoxy-7-(3-(piperidin-1-yl)propoxy)quinolin-4-yl)oxy)phenyl)-1-(2-(trifluoromethoxy)phenyl)-4-oxo-1,4-dihydrocinnoline-3-carboxamide]: the IC50 was 1.1 µg/mL (≈ 1.45 µM) in test [1] (MTT, 72 hours, U87MG); 1.6 µg/mL (≈ 2.11 µM) in test [2] (NCI-H460, MTT, 72 hours, H460); 0.98 µg/mL (≈ 1.29 µM) in test [3] (MTT, 72 hours, SMMC-7721); 1.8 µg/mL (≈ 2.38 µM) in test [4] (MTT, 72 hours, HT-29); 1450 nM in test [5]; 2.1 µg/mL (≈ 2.77 µM) in test [6] (MTT, 72 hours, MKN-45).

Turning to `COc1cc2c(Oc3ccc(NC(=O)c4nn(-c5ccc(Br)cc5)c5ccccc5c4=O)cc3F)ccnc2cc1OCCCN1CCOCC1` [Example 39, N-(3-fluoro-4-((6-methoxy-7-(3-(morpholin-4-yl)propoxy)quinolin-4-yl)oxy)phenyl)-1-(4-bromophenyl)-4-oxo-1,4-dihydrocinnoline-3-carboxamide], the IC50 in test [1] (72 h) is 1.8 µg/mL (≈ 2.39 µM); in test [2] (NCI-H460, 72 h) it was 2.3 µg/mL (≈ 3.05 µM); in test [3] (SMMC-7721, 72 h), 2.1 µg/mL (≈ 2.78 µM); in test [4] (HT-29, 72 h), 0.87 µg/mL (≈ 1.15 µM); in test [5], 1330 nM; in test [6] (MKN-45, 72 h), 1.4 µg/mL (≈ 1.86 µM).

As for `COc1cc2c(Oc3ccc(NC(=O)c4nn(-c5ccc(Cl)cc5Cl)c5ccccc5c4=O)cc3F)ccnc2cc1OCCCN1CCN(C)CC1` [Example 43, N-(3-fluoro-4-((6-methoxy-7-(3-(4-methylpiperazin-1-yl)propoxy)quinolin-4-yl)oxy)phenyl)-1-(2,4-dichlorophenyl)-4-oxo-1,4-dihydrocinnoline-3-carboxamide], the IC50 is 0.77 µg/mL (≈ 1.02 µM) in test [1] (72 h); 0.53 µg/mL (≈ 0.7 µM) in test [2] (NCI-H460, 72 h); 1.8 µg/mL (≈ 2.38 µM) in test [3] (SMMC-7721, 72 h); 1.2 µg/mL (≈ 1.58 µM) in test [4] (HT-29, 72 h); 924 nM in test [5]; 0.45 µg/mL (≈ 0.594 µM) in test [6] (MKN-45, 72 h).

These data come from patent publication US20140364431A1, “Quinoline and cinnoline derivatives and their applications” (Shenyang Pharmaceutical University, priority 2011, published 2014).
